Experiments:
MAO-A [1] = molecular target: T1, MAO-A (Homo sapiens, UniProt P21397); test: Inhibition of human recombinant MAOA assessed as enzyme activity recovery level using kynuramine substrate incubated for 15 mins followed by 24 hrs dialysis by fluorescence spectrophotometry; type: toxicity; parameters: scale not given: the % may be the effect or the level left; settings: probe kynuramine, read-out: Activity
T1 sequence (P21397 whole entry): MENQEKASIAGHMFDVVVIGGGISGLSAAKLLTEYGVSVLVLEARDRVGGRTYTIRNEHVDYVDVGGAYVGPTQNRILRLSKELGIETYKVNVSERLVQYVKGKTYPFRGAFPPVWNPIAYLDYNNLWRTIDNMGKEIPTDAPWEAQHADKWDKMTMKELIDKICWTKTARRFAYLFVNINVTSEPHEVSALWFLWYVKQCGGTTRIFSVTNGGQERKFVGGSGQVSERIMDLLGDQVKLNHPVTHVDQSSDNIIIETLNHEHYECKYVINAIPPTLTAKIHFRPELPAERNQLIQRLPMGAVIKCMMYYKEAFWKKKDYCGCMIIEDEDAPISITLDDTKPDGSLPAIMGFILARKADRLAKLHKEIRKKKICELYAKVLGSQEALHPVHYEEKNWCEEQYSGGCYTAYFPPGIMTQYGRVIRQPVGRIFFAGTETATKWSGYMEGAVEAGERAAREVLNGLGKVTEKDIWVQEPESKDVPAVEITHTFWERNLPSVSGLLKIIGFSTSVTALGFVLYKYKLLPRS

Rattus norvegicus = species on record: Rattus norvegicus; test: Selectivity index, ratio of IC50 for inhibition of rat brain MAOA to IC50 for rat brain MAOB
[2] = molecular target: T2, Amine oxidase [flavin-containing] A (Rattus norvegicus, UniProt P21396); test: Inhibition of rat brain MAOA using kynuramine substrate by fluorescence spectrophotometry; type: toxicity
T2 sequence (P21396 whole entry): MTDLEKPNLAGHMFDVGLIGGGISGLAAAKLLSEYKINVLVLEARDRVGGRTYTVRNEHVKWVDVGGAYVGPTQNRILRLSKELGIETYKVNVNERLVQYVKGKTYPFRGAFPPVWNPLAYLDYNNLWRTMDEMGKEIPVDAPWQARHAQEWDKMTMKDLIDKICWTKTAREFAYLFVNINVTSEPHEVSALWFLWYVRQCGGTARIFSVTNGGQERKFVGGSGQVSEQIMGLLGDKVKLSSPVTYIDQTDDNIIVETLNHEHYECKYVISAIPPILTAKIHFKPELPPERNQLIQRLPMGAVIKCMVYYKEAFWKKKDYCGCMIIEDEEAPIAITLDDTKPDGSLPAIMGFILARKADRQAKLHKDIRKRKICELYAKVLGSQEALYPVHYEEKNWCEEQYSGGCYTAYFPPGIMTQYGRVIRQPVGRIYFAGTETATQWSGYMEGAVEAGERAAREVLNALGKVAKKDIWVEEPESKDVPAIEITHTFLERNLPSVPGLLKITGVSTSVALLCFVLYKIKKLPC

[3] = molecular target: T3, Amine oxidase [flavin-containing] B (Rattus norvegicus, UniProt P19643); test: Inhibition of rat brain MAOB using kynuramine substrate by fluorescence spectrophotometry
T3 sequence (P19643 whole entry): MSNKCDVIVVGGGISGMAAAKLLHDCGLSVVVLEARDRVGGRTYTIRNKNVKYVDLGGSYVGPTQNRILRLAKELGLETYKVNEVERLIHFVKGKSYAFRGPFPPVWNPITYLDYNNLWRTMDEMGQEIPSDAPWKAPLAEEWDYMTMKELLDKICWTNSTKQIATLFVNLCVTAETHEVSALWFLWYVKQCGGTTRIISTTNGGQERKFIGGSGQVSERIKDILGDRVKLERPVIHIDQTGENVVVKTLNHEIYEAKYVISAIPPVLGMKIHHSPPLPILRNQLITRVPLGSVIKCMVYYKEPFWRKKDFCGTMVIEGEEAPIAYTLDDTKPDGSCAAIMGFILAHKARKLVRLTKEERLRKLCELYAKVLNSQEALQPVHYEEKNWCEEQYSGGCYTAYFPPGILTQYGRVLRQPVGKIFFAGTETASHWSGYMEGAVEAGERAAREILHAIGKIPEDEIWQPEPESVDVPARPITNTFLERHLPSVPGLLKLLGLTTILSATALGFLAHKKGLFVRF

[4] = molecular target: T4, Amine oxidase [flavin-containing] B (Homo sapiens, UniProt P27338); test: Inhibition of human recombinant MAOB using kynuramine substrate incubated for 20 mins by fluorescence spectrophotometry
T4 sequence (P27338 whole entry): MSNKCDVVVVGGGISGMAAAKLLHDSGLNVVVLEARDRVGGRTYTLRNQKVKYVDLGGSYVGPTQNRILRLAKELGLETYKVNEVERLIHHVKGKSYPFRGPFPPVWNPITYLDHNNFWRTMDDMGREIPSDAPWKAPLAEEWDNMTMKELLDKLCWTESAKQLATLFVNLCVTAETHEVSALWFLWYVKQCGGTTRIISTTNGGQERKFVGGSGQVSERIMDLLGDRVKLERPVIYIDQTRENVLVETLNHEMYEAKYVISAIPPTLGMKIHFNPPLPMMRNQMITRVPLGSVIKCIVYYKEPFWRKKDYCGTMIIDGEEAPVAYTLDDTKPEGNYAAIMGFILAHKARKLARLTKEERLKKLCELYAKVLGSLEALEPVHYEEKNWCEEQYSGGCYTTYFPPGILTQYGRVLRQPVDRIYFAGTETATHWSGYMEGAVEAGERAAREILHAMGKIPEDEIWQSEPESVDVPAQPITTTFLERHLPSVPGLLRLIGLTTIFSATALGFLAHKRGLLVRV

MAO-A [5] = molecular target: T1, MAO-A; test: Resistance index, ratio of IC50 for toloxatone to IC50 for test compound for inhibition of human recombinant MAOA using kynuramine substrate incubated for 20 mins by fluorescence spectrophotometry; type: toxicity; settings: probe kynuramine, read-out: Ratio IC50
[6] = molecular target: T4, Amine oxidase [flavin-containing] B; test: Time dependent inhibition of human recombinant MAOB at 0.25 to 1.25 uM using kynuramine substrate by fluorescence spectrophotometry based graphing of slopes of Lineweaver-Burk plots versus inhibitor concentration
[7] = molecular target: T4, Amine oxidase [flavin-containing] B; test: Time dependent inhibition of human recombinant MAOB at […] using kynuramine substrate incubated for 5 to 35 mins by fluorescence spectrophotometry; settings: TDE = time-dependent effect, time 5-35 min
[8] = molecular target: T4, Amine oxidase [flavin-containing] B; test: Inhibition of human recombinant MAOB assessed as enzyme activity recovery level at 4 times IC50 using kynuramine substrate incubated for 15 mins followed by without dialysis by fluorescence spectrophotometry; parameters: scale not given: the % may be the effect or the level left; settings: 0.25 h
Homo sapiens = species on record: Homo sapiens; test: Selectivity index, ratio of IC50 for inhibition of human recombinant MAOA to IC50 for human recombinant MAOB
[9] = molecular target: T4, Amine oxidase [flavin-containing] B; test: Inhibition of human recombinant MAOB assessed as enzyme activity recovery level at 4 times IC50 using kynuramine substrate incubated for 15 mins followed by 24 hrs dialysis by fluorescence spectrophotometry; parameters: scale not given: the % may be the effect or the level left; settings: 0.25 h
MAO-A [10] = molecular target: T1, MAO-A; test: Inhibition of human recombinant MAOA assessed as enzyme activity recovery level at 4 times IC50 using kynuramine substrate incubated for 15 mins followed by without dialysis by fluorescence spectrophotometry; type: toxicity; parameters: scale not given: the % may be the effect or the level left; settings: probe kynuramine, read-out: Activity
[11] = molecular target: T5, Amine oxidase [flavin-containing] A (Homo sapiens, UniProt P21397); test: Inhibition of human recombinant MAOA using kynuramine substrate incubated for 20 mins by fluorescence spectrophotometry; type: toxicity
T5 sequence (P21397 whole entry): T1 sequence (P21397 whole entry)

MAO-A [12] = molecular target: T1, MAO-A; test: Inhibition of human recombinant MAOA assessed as enzyme activity recovery level at 4 times IC50 using kynuramine substrate incubated for 15 mins followed by 24 hrs dialysis by fluorescence spectrophotometry; type: toxicity; parameters: scale not given: the % may be the effect or the level left; settings: probe kynuramine, read-out: Activity
[13] = molecular target: T4, Amine oxidase [flavin-containing] B; test: Time dependent inhibition of human recombinant MAOB at 0.25 to 1.25 uM using kynuramine substrate by fluorescence spectrophotometry based L-B plot analysis

## C#CCN(C)Cc1ccccc1 [PARGYLINE]
MAO-A [1]
  activity at 0.25 h: 0.9%

## C#CCN(C)C1CCc2ccccc2C1 (racemic) [listing 1 of 2 here]
Rattus norvegicus
  Ratio IC50: 1.2

## C#CCN(C)C1CCc2ccccc2C1 (racemic) [listing 2 of 2 here]
[2]
  IC50: 51 nM
[3]
  IC50: 41 nM

## C#CCNC1CCc2ccccc2C1 (racemic)
[4]
  IC50: 14600 nM
MAO-A [5]
  selectivity ratio at 20 min: 5
[6]
  Ki: 435 nM
[7]
  TDI: Tde
[8]
  Activity: 0.3%
Homo sapiens
  Ratio IC50: 0.05
[9]
  Activity: 7.5%
MAO-A [10]
  activity at 0.25 h: 46%
[11]
  IC50: 721 nM
MAO-A [12]
  activity at 0.25 h: 102%
[13]
  Ki: 460 nM

## C#CCN(C)C1CCc2ccccc2C1 (single isomer, unassigned; (+)) [listing 1 of 2 here]
Rattus norvegicus
  Ratio IC50: 8.8

## C#CCN(C)C1CCc2ccccc2C1 (single isomer, unassigned; (+)) [listing 2 of 2 here]
[2]
  IC50: 140 nM
[3]
  IC50: 16 nM

## C#CCN(C)C1CCc2ccccc2C1 (single isomer, unassigned; (-)) [listing 1 of 2 here]
[2]
  IC50: 46 nM
[3]
  IC50: 88 nM

## C#CCN(C)C1CCc2ccccc2C1 (single isomer, unassigned; (-)) [listing 2 of 2 here]
Rattus norvegicus
  Ratio IC50: 0.5
